Test results: PubChem BioAssay (NCI)
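Tested at 5 concentrations; 48 h exposure; 96-well plates; endpoints linearly interpolated, else capped at highest concentration. Abbreviation: GI50, concentration required for 50% inhibition of growth. TGI denotes the concentration required for complete inhibition of growth.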

What was measured:
Experiment in all cases: inhibition of tumour cell growth, NCI panel, 48 h
ACHN renal = tested on: ACHN renal
EKVX NSCLC = tested on: EKVX NSCLC
HS 578T breast = tested on: HS 578T breast
K-562 leukemia = tested on: K-562 leukemia
LOX IMVI melanoma = tested on: LOX IMVI melanoma
OVCAR-5 ovarian = tested on: OVCAR-5 ovarian
SNB-75 CNS = tested on: SNB-75 CNS
SW-620 colon = tested on: SW-620 colon
DMS 273 small cell lung = tested on: DMS 273 small cell lung
LXFL 529 NSCLC = tested on: LXFL 529 NSCLC

SMILES | TGI (ACHN renal) [µM] | TGI (EKVX NSCLC) [µM] | TGI (HS 578T breast) [µM] | TGI (K-562 leukemia) [µM] | TGI (LOX IMVI melanoma) [µM] | TGI (OVCAR-5 ovarian) [µM] | TGI (SNB-75 CNS) [µM] | TGI (SW-620 colon) [µM] | GI50 (ACHN renal) [µM] | GI50 (EKVX NSCLC) [µM] | GI50 (HS 578T breast) [µM] | GI50 (K-562 leukemia) [µM] | GI50 (LOX IMVI melanoma) [µM] | GI50 (OVCAR-5 ovarian) [µM] | GI50 (SNB-75 CNS) [µM] | GI50 (SW-620 colon) [µM] | TGI (DMS 273 small cell lung) [µM] | TGI (LXFL 529 NSCLC) [µM]
O=C(O)C(O)c1ccc(F)cc1 (stereo not given) | > 100 | > 100 | > 100 | > 100 | > 100 | > 100 | > 100 | > 100 |  |  |  |  |  |  |  |  |  | 
CN1CCN(CCCOc2ccc3ncnc(Nc4ccc(Oc5cccc(F)c5)c(Cl)c4)c3c2)CC1 | 2.19 | 3.56 | 4.26 | 4.34 | 3.1 | 3.29 | 2.75 | 3.25 | 1.02 | 1.31 | 1.76 | 1.19 | 1.7 | 1.67 | 1.4 | 1.68 |  | 
CCOC(=O)C(=Cc1c(-c2ccccc2)[nH]c2ccccc12)C(=O)OCC | 23.6 | 54.1 | 28.8 | 24 | 19.4 | 41.8 | 28.4 | 22.1 | 4.34 | 10.8 | 3.53 | 3.6 | 5.58 | 13.4 | 6.55 | 5.57 |  | 
COc1ccc(-c2nn3ncccc3c2-c2ccnc(Nc3cccc(C(F)(F)F)c3)n2)cc1 | > 25 | > 25 | > 25 | > 25 | > 25 | > 25 | > 25 | > 25 | 6.7 | 6.69 | 8.29 | 8.04 | 6.53 | 6.7 | > 16.3 | 10.8 |  | 
NCCn1c2c(c3ccccc3c1=O)C(=O)c1ccccc1-2 | 0.31 | 4.48 | 6.66 | 3.46 | 1.78 | 2.57 | 3.2 | 4.32 | < 0.0453 | 1.48 | 1.58 | 0.231 | 0.347 | 0.674 | 1.04 | 0.147 |  | 
COc1ccc(-c2conc2-c2ccccc2)cc1 | > 100 | > 100 |  | > 100 | > 100 | > 100 | 0.455 | > 100 | 1.1 | 2.64 | 0.267 | 0.0603 | 0.612 | 0.832 | 0.109 | 0.081 |  | 
Cc1cc2c(-c3nc4ccccn4c3NC34CC5CC(CC(C5)C3)C4)c(O)c(O)cc2c(O)c1-c1c(C)cc2c(-c3nc4ccccn4c3NC34CC5CC(CC(C5)C3)C4)c(O)c(O)cc2c1O | 2.88 | > 25 | 16.2 | 4.93 | 3.38 | > 25 | 19.1 | > 25 | 0.785 | 0.454 | 0.85 | 0.152 | 0.412 | 0.922 | 1.04 | 0.881 |  | 
N#Cc1c(-c2ccc(Cl)cc2)csc1NC(=O)Nc1cccc(C(F)(F)F)c1 | 6.51 | 9.75 | 23.9 | 12.2 | 9.48 | 12.9 | 12.7 | 13.9 | 2.23 | 1.97 | 3.25 | 2.97 | 2.64 | 2.98 | 2.01 | 3.33 |  | 
Cc1ccc(NCCNCC(O)CO)c2c(=O)c3ccccc3sc12 (stereo not given) | 3.07 | 3.77 | 5.9 | 3.26 | 2.84 | 3.67 | 11.5 | 2.57 | 1.29 | 1.83 | 2.19 | 1.52 | 1.43 | 1.74 | 2.07 | 1.04 |  | 
N#CC1=C(N)Oc2c(sc3c(Br)cccc23)C1c1ccc(F)cc1 (stereo not given) | 17 | 23.2 | 52.7 | 23.9 | 15.2 | 19.6 | 18.9 | 34.6 | 0.682 | 0.534 | 0.851 | 0.275 | 0.695 | 1.77 | 0.327 | 0.476 |  | 
O=C(O)C(CS)N=Cc1nc(-c2ccccc2)oc1O (stereo not given) | > 100 | > 100 |  | > 100 | > 100 | > 100 | > 100 | > 100 |  |  |  |  |  |  |  |  | > 100 | > 100
